Results published in patent US20260242365A1, “USES OF CERTAIN 1,4-OXAZEPANE-2-CARBOXAMIDES AS DPP1 INHIBITORS” (Insmed Incorporated, priority 2023, published 2026).

Molecular target: T1, mouse DPP1 (Mus musculus, UniProt P97821)
T1 construct: Test articles were applied to active mouse DPP1 enzyme; purchased R&D Systems
Test: Mouse DPP1 Enzyme IC50 Assay
Type: biochemical
Settings: active mouse DPP1 enzyme, H-Gly-Arg-AMC substrate
Protocol: Test articles were applied to active mouse DPP1 enzyme (R&D Systems; Minneapolis, MN) in Assay Buffer (50 mM MES pH 5.5, 50 mM NaCl, 5 mM DTT) in a total reaction volume of 125 μL. 25 μL of compound in Assay Buffer plus 5% DMSO was first added to 50 μL of active mouse DPP1 enzyme at a concentration of […] and allowed to pre-incubate for 10 minutes at 37° C. after which 50 μL of 1000 μM H-Gly-Arg-AMC substrate (Bachem; St. Torrance, CA) was added, giving final substrate concentration of 400 μM and a final DMSO concentration of 1%. Substrate cleavage was measured for 90 minutes at 37° C., with fluorescence at Excitation/Emission 350/450 nm measured every 5 minutes. DPP1 concentration was interpolated based on its activity relative to a standard curve of recombinant active mouse DPP1 enzyme. IC50 values for each compound were calculated via the XLFit (IDBS Version 5.3.1.3) Add-On to Microsoft Excel using the four parameter fit equation y= (A+ ((B−A)/(1+ ((C/x)^D)))), which appears as equation number 205 (4 Parameter Logistic Model or Sigmoidal Dose-Response Model) in XLFit. Default constraints were used for each Parameter. IC50 was defined as the compound concentration at which 50% of enzyme activity was inhibited when compared to the no-compound control.

T1 sequence (P97821 25-134 limits assumed): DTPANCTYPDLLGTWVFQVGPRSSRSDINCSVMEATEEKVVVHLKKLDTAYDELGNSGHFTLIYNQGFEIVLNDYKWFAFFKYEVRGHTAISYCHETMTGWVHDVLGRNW
T1 sequence (P97821 231-393 limits assumed): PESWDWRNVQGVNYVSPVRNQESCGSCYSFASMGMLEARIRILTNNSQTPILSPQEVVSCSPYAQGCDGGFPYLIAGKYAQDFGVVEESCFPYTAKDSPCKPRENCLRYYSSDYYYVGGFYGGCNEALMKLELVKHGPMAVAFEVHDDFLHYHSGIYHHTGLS
T1 sequence (P97821 394-462 limits assumed): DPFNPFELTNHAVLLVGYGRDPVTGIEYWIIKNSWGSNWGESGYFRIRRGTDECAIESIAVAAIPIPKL

IC50: 5.6 ± 0.4 nM
SMILES: Cn1c(=O)oc2ccc(-c3ccc(C[C@@H](C#N)NC(=O)[C@@H]4CNCCCO4)c(F)c3)cc21 [INSM-204]
